Experimental data published in patent publication US10676408B2, “Alkynylpyrazoles as nitrification inhibitors” (BASF SE, priority 2014, dated 2020).

System: nitrification
Assay: Inhibition of nitrification in soil (48 well plate, ammonium sulfate, color reaction at 540 nm)
Assay type: cell-based
Conditions: dose of 10 ppm in 1% DMSO; field soil (e.g. Limburgerhof); incubated at room temperature for up to 72 hrs; inhibition = 100 − % activity compared to control; read-out: IN (best inhibition value obtained for a compound)
Experimental: The compounds of the invention have been tested as follows in terms of the inhibition of nitrification:
Soil was sampled fresh from a field (e.g. Limburgerhof), dried and sieved through a 500 μm sieve. Approximately 200 mg of soil were placed into each well of a 48 well plate. Compounds, or DMSO alone, were added at a concentration of 10 ppm, dissolved in 1% DMSO. 6 μmol ammonium sulfate was added per well as well as 4.8 mg NaClO3.
Subsequently, the samples were incubated at room temperature for up to 72 hrs. After the incubation period 64 mg KCl were added and mixed. 25 μl of the supernatant were placed into a fresh plate and 260 μl of a color reaction solution (from Merck Nr 1.11799.0100) were added.
Measurements were taken with a Tecan plate Reader at 540 nm wavelength.
Inhibition is calculated as x=% activity compared to control, and converted to 100−x to give the value of inhibition, rather than activity.

Structure (SMILES)	inhibition at 10 ppm [%]
C#Cc1cc(C#C)n(C)n1 [Compound 1]	55
C#Cc1ccnn1C [Compound 2]	24
C#Cc1c(C)nn(C)c1C [Compound 3]	27
